Legend:
[1] = humans, cited from earlier work
[2] = system: spontaneously hypertensive rats; test: Hypotensive effects in the spontaneous hypertensive rat model (Cerep); assay type: in vivo; conditions: oral administration, 10 mg/kg, 8 rats per group, over 8 h
Method: Hypotensive effects in the spontaneous hypertensive rat model. Effects of the products of examples 7, 9, 12, 18, 27 and 30 are tested by oral administration to spontaneously hypertensive rats at Cerep, using essentially the procedure of Bazil M K et. al., J. Cardiovasc. Pharmacol. 1993 22: 897 and a sample size of 8 rats per group.

Q: What does the source list for CN1CC(=O)N2[C@H](c3ccc4c(c3)OCO4)c3[nH]c4ccccc4c3C[C@@H]2C1=O [Compound 1, (6R,12aR)-6-(1,3-benzodioxol-5-yl)-2-methyl-1,2,3,4,6,7,12,12a-octahydropyrazino[1′,2′:1,6]pyrido[3,4-b]indole-1,4-dione]?
A: half-life and exposure (AUC) when dosed concurrently with CYP3A4 inhibitors ([1]; co-dosing with inhibitors of CYP3A4): clinically meaningful increases; absorption following oral administration ([1]; oral): well absorbed; amount excreted unchanged ([1]; oral): only a minor amount

Q: Which “reduction in blood pressure” value [2] does the source give for [2H]C([2H])([2H])N1CC(=O)N2[C@H](c3ccc4c(c3)OC(F)(F)O4)c3[nH]c4ccccc4c3C[C@@H]2C1=O [Example 7, (6R,12aR)-6-(2,2-Difluorobenzo[d]-1,3-dioxol-5-yl)-1,2,3,4,6,7,12,12a-octahydropyrazino[1′,2′:1,6]pyrido[3,4-b]indole-2-trideuteromethyl-1,4-dione] here?
A: significant reductions in blood pressure sustained over 8 h

Q: With [2H]c1cc2c(cc1[C@@H]1c3[nH]c4ccccc4c3C[C@@H]3C(=O)N(C)CC(=O)N13)OC(F)(F)O2 [Example 9, (6R,12aR)-6-(6-Deutero-2,2-difluorobenzo[d]-1,3-dioxol-5-yl)-2-methyl-1,2,3,4,6,7,12,12a-octahydropyrazino[1′,2′:1,6]pyrido[3,4-b]indole-1,4-dione] as the compound, how does the “reduction in blood pressure” value [2] read?
A: significant reductions in blood pressure sustained over 8 h

Q: Which “reduction in blood pressure” value [2] does the source give for [2H][C@@]1(c2ccc3c(c2)OC(F)(F)O3)c2[nH]c3ccccc3c2C[C@@H]2C(=O)N(C)CC(=O)N21 [Example 12, (6R,12aR)-6-Deutero-6-(2,2-difluorobenzo[d]-1,3-dioxol-5-yl)2-methyl-1,2,3,4,6,7,12,12a-octahydropyrazino[1′,2′:1,6]pyrido[3,4-b]indole-1,4-dione] here?
A: significant reductions in blood pressure sustained over 8 h

Q: Which “reduction in blood pressure” value [2] does the source give for CN1CC(=O)N2[C@H](c3ccc4c(c3)OC(F)(F)O4)c3[nH]c4ccccc4c3C[C@@H]2C1=O [Example 18, (6R,12aR)-6-(2,2-Difluorobenzo[d]-1,3-dioxol-5-yl)-1,2,3,4,6,7,12,12a-octahydropyrazino[1′,2′:1,6]pyrido[3,4-b]indole-2-methyl-1,4-dione] here?
A: significant reductions in blood pressure sustained over 8 h

Q: With [2H]C1([2H])Oc2ccc([C@@H]3c4[nH]c5ccccc5c4C[C@@H]4C(=O)N(C)CC(=O)N34)cc2O1 [Example 27, (6R,12aR)-6-(2,2-dideuterobenzo[d]-1,3-dioxol-5-yl)-2-methyl-1,2,3,4,6,7,12,12a-octahydropyrazino[1′,2′:1,6]pyrido[3,4-b]indole-1,4-dione] as the compound, how does the “reduction in blood pressure” value [2] read?
A: significant reductions in blood pressure sustained over 8 h

Q: For [2H]C1([2H])Oc2ccc([C@@H]3c4[nH]c5ccccc5c4C[C@@H]4C(=O)N(C([2H])([2H])[2H])CC(=O)N34)cc2O1 [Example 30, (6R,12aR)-6-(2,2-dideuterobenzo[d]-1,3-dioxol-5-yl)-1,2,3,4,6,7,12,12a-octahydropyrazino[1′,2′:1,6]pyrido[3,4-b]indole-2-trideuteromethyl-1,4-dione], which “reduction in blood pressure” value [2] is on record?
A: significant reductions in blood pressure sustained over 8 h
